This is an account of results in ChEMBL document CHEMBL1909046, “DrugMatrix in vitro pharmacology data”.

Structures are written as SMILES.

Tyrosine-protein kinase Fyn, sequence (P06241 whole entry): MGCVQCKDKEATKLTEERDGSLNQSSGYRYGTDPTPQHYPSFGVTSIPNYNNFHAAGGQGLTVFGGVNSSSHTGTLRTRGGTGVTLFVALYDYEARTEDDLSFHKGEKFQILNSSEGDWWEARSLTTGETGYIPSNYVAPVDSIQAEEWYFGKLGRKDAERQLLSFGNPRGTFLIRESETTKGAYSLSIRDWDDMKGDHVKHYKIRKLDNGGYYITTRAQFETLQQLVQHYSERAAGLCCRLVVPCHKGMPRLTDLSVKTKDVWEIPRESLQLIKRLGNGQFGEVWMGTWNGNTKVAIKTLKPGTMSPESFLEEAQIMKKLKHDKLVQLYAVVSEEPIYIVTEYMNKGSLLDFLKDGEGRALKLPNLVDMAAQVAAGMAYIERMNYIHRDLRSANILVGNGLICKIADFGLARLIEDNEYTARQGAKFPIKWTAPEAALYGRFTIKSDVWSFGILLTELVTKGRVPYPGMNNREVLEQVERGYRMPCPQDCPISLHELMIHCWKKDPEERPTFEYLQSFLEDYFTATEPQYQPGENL

The target of the first assay is Receptor tyrosine-protein kinase erbB-2 (Homo sapiens, UniProt P04626). Put plainly: biochemical. In kind it is cell-based, Insect cells. As to conditions: insect cells.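 Further: inhibition of HER2 kinase enzyme activity, measured with Poly(Glu:Tyr) as the phosphorylation substrate; in other assays of this panel Not Active means under 50% inhibition at 10 µM.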
Receptor tyrosine-protein kinase erbB-2, sequence (P04626 whole entry): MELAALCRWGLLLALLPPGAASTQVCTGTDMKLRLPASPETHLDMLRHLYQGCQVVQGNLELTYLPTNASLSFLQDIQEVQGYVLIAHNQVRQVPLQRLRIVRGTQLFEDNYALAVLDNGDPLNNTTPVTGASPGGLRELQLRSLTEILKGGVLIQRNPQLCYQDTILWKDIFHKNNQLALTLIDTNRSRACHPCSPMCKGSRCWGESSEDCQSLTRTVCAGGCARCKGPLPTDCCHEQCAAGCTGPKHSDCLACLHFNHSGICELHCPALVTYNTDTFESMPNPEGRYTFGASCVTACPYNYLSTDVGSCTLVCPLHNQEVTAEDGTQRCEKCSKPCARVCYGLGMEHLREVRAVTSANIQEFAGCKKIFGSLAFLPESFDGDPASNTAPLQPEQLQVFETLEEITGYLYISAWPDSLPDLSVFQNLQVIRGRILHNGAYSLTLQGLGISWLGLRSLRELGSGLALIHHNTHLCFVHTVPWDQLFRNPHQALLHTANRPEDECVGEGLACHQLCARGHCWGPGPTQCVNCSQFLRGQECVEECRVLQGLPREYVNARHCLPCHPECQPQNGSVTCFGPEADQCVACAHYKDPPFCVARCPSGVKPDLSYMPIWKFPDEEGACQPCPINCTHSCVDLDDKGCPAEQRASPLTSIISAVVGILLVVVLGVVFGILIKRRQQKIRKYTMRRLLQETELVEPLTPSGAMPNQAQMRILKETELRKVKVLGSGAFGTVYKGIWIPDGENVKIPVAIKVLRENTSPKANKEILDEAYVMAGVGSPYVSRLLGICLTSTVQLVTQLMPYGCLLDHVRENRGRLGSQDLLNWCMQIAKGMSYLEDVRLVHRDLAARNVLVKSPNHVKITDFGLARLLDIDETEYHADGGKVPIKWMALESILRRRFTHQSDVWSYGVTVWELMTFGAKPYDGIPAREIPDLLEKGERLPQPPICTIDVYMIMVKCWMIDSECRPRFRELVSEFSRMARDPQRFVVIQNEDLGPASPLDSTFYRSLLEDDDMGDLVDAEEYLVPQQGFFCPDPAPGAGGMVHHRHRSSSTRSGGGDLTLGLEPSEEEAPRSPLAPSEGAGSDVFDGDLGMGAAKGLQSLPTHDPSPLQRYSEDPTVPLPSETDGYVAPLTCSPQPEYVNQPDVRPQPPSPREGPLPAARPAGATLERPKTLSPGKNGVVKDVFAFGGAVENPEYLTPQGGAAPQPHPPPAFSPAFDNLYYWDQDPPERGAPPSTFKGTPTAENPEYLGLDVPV
`O=C1C(CC[S+]([O-])c2ccccc2)C(=O)N(c2ccccc2)N1c1ccccc1` (configuration not stated) [SULFINPYRAZONE]: the IC50 entry is listed as “Not Active”.
Turning to `NC(=O)N1C(=O)/C(=C(\O)c2cccs2)c2cc(Cl)ccc21` [TENIDAP], the IC50 entry is given as “Not Active”.
Regarding `CN(C/C=C/C#CC(C)(C)C)Cc1cccc2ccccc12` [TERBINAFINE], the IC50 entry is listed as “Not Active”.
Same read-out and setting: for `CCCCNc1ccc(C(=O)OCCN(C)C)cc1` [TETRACAINE] the value was “Not Active”; for `Cn1c(=O)c2nc[nH]c2n(C)c1=O.O` [THEOPHYLLINE], “Not Active”; for `CS(=O)(=O)c1ccc([C@@H](O)[C@@H](CO)NC(=O)C(Cl)Cl)cc1` [THIAMPHENICOL], “Not Active”.

The next assay concerns the target Glycine receptor (Rattus norvegicus, UniProt P22771+P24524+P07727+P20781). Further: in other assays of this panel Not Active means under 50% inhibition at 10 µM.
Experiment: not given
In kind it is cell membranes, Wistar, Spinal cord, Membrane.
Settings: not given
Take `O=C1C(CC[S+]([O-])c2ccccc2)C(=O)N(c2ccccc2)N1c1ccccc1` (configuration not stated) [SULFINPYRAZONE]: the IC50 entry is on record as “Not Active”.
Same read-out and setting: as for `NC(=O)N1C(=O)/C(=C(\O)c2cccs2)c2cc(Cl)ccc21` [TENIDAP], the entry is “Not Active”; as for `CN(C/C=C/C#CC(C)(C)C)Cc1cccc2ccccc12` [TERBINAFINE], “Not Active”; as for `CCCCNc1ccc(C(=O)OCCN(C)C)cc1` [TETRACAINE], “Not Active”.
The same measure, in the same setting: as for `Cn1c(=O)c2nc[nH]c2n(C)c1=O.O` [THEOPHYLLINE], the entry is “Not Active”; as for `CS(=O)(=O)c1ccc([C@@H](O)[C@@H](CO)NC(=O)C(Cl)Cl)cc1` [THIAMPHENICOL], “Not Active”.

The next assay deals with Platelet-activating factor receptor (Homo sapiens, UniProt P25105).
Platelet-activating factor receptor, sequence (P25105 whole entry): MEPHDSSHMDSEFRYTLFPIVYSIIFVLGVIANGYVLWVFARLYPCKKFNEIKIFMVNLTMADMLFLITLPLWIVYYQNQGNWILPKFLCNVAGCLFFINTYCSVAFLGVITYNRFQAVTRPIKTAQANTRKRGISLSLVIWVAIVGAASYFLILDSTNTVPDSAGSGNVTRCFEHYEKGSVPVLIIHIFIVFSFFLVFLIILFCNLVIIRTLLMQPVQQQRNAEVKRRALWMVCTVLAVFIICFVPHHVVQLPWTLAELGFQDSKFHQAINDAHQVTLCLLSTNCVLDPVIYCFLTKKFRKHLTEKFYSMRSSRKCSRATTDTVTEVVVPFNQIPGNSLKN
Experiment: not given
The class given is tissue-based.
Settings: not given
Turning to `O=C1C(CC[S+]([O-])c2ccccc2)C(=O)N(c2ccccc2)N1c1ccccc1` (configuration not stated) [SULFINPYRAZONE], the IC50 result is “Not Active”.
Same read-out and setting: as for `NC(=O)N1C(=O)/C(=C(\O)c2cccs2)c2cc(Cl)ccc21` [TENIDAP], the entry is “Not Active”; as for `CN(C/C=C/C#CC(C)(C)C)Cc1cccc2ccccc12` [TERBINAFINE], “Not Active”.
`CCCCNc1ccc(C(=O)OCCN(C)C)cc1` [TETRACAINE]: the IC50 entry is “Not Active”.
Same read-out and setting: as for `Cn1c(=O)c2nc[nH]c2n(C)c1=O.O` [THEOPHYLLINE], the entry is “Not Active”.
Consider `CS(=O)(=O)c1ccc([C@@H](O)[C@@H](CO)NC(=O)C(Cl)Cl)cc1` [THIAMPHENICOL], for which the IC50 entry is recorded as “Not Active”.

The next assay has as its target T1, 3-hydroxy-3-methylglutaryl-coenzyme A reductase (Homo sapiens, UniProt P04035).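 Further: enzyme inhibition assay of HMG-CoA reductase using radiolabeled [14C]HMG-CoA as substrate; in other assays of this panel Not Active means under 50% inhibition at 10 µM.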
T1 sequence (P04035 whole entry): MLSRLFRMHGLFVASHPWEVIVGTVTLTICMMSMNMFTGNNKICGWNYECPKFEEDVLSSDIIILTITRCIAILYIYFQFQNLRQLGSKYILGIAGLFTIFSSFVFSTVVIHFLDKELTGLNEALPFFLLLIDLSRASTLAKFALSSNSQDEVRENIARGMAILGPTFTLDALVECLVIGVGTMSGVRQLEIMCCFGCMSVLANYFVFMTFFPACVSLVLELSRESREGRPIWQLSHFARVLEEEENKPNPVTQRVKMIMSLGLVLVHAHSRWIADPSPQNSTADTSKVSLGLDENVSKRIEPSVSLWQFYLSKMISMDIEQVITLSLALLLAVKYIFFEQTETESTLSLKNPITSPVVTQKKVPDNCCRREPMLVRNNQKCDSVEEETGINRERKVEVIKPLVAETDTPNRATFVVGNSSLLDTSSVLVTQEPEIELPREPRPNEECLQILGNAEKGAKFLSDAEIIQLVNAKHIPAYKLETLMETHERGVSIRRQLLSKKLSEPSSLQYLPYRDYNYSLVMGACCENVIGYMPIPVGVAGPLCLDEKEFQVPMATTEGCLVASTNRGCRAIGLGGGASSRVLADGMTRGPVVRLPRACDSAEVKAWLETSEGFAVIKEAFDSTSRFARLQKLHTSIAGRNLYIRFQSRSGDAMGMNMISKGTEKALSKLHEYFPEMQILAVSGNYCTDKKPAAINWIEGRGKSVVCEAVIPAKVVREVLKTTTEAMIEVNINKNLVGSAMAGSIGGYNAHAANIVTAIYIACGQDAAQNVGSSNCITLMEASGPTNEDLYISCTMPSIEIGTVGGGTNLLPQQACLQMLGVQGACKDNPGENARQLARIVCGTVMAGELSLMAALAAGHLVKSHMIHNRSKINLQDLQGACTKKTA
Experiment: not given
On the set-up: species or system Escherichia coli.
Settings: not given
`O=C1C(CC[S+]([O-])c2ccccc2)C(=O)N(c2ccccc2)N1c1ccccc1` (configuration not stated) [SULFINPYRAZONE]: the IC50 result is reported as “Not Active”.
For `NC(=O)N1C(=O)/C(=C(\O)c2cccs2)c2cc(Cl)ccc21` [TENIDAP], the IC50 entry is listed as “Not Active”.
For `CN(C/C=C/C#CC(C)(C)C)Cc1cccc2ccccc12` [TERBINAFINE], the IC50 entry is on record as “Not Active”.
On the same count and under the same terms, for `CCCCNc1ccc(C(=O)OCCN(C)C)cc1` [TETRACAINE] the value was “Not Active”.
On the same count and under the same terms, for `Cn1c(=O)c2nc[nH]c2n(C)c1=O.O` [THEOPHYLLINE] the value was “Not Active”.
Still for that read-out and setting: as for `CS(=O)(=O)c1ccc([C@@H](O)[C@@H](CO)NC(=O)C(Cl)Cl)cc1` [THIAMPHENICOL], the entry is “Not Active”.

The target of another assay is T2, Type-2 angiotensin II receptor (Homo sapiens, UniProt P50052). Further: in other assays of this panel Not Active means under 50% inhibition at 10 µM.
T2 sequence (P50052 whole entry): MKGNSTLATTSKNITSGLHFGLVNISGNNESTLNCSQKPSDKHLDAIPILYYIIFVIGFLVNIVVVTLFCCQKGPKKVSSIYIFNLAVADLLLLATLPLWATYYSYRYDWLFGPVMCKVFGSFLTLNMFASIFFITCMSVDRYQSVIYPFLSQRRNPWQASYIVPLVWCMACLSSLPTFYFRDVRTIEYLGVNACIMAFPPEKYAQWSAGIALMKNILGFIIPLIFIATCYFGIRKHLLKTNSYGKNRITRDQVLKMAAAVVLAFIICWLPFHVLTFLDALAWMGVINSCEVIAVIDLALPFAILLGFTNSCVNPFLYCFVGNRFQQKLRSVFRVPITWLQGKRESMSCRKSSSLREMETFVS
Experiment: not given
The class given is cell-based. Particulars: cho-k1.
For the compound `O=C1C(CC[S+]([O-])c2ccccc2)C(=O)N(c2ccccc2)N1c1ccccc1` (configuration not stated) [SULFINPYRAZONE], the IC50 result is listed as “Not Active”.
With `NC(=O)N1C(=O)/C(=C(\O)c2cccs2)c2cc(Cl)ccc21` [TENIDAP], the IC50 result is on record as “Not Active”.
Turning to `CN(C/C=C/C#CC(C)(C)C)Cc1cccc2ccccc12` [TERBINAFINE], the IC50 result is “Not Active”.
On the same count and under the same terms, for `CCCCNc1ccc(C(=O)OCCN(C)C)cc1` [TETRACAINE] the value was “Not Active”; for `Cn1c(=O)c2nc[nH]c2n(C)c1=O.O` [THEOPHYLLINE], “Not Active”.
Regarding `CS(=O)(=O)c1ccc([C@@H](O)[C@@H](CO)NC(=O)C(Cl)Cl)cc1` [THIAMPHENICOL], the IC50 entry is given as “Not Active”.

The next assay has as its target T3, Alpha-2C adrenergic receptor (Homo sapiens, UniProt P18825).
T3 sequence (P18825 whole entry): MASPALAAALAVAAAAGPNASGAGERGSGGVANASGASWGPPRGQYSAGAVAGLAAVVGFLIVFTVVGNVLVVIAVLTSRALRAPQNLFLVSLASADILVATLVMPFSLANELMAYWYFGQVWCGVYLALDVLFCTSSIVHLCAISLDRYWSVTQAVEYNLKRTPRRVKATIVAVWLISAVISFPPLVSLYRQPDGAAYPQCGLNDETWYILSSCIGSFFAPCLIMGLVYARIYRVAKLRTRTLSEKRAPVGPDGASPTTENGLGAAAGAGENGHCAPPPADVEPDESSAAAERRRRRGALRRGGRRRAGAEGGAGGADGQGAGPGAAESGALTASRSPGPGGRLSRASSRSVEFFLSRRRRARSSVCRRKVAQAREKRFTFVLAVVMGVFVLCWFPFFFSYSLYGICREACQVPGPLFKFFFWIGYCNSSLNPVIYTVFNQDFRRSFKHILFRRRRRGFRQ
Put plainly: DRUGMATRIX: Adrenergic Alpha-2C radioligand binding (ligand: [3H] MK-912). Further: call rule not given here. The class given is cell membranes, Sf9, Membrane. As to conditions: sf9.
Turning to `O=C1C(CC[S+]([O-])c2ccccc2)C(=O)N(c2ccccc2)N1c1ccccc1` (configuration not stated) [SULFINPYRAZONE], the IC50 entry is “Not Active”.
For `NC(=O)N1C(=O)/C(=C(\O)c2cccs2)c2cc(Cl)ccc21` [TENIDAP], the IC50 entry is given as “Not Active”.
`CN(C/C=C/C#CC(C)(C)C)Cc1cccc2ccccc12` [TERBINAFINE]: the IC50 result is on record as “Not Active”.
For `CCCCNc1ccc(C(=O)OCCN(C)C)cc1` [TETRACAINE], the IC50 entry is recorded as “Not Active”.
Same read-out and setting: for `Cn1c(=O)c2nc[nH]c2n(C)c1=O.O` [THEOPHYLLINE] the value was “Not Active”.
Consider `CS(=O)(=O)c1ccc([C@@H](O)[C@@H](CO)NC(=O)C(Cl)Cl)cc1` [THIAMPHENICOL], for which the IC50 result was “Not Active”.

A further assay addresses Tyrosine-protein kinase Fyn (Homo sapiens, UniProt P06241). Put plainly: biochemical. The class given is cell-based, Insect cells. As to conditions: insect cells.
For `O=C1C(CC[S+]([O-])c2ccccc2)C(=O)N(c2ccccc2)N1c1ccccc1` (configuration not stated) [SULFINPYRAZONE], the IC50 entry was “Not Active”.
Consider `NC(=O)N1C(=O)/C(=C(\O)c2cccs2)c2cc(Cl)ccc21` [TENIDAP], for which the IC50 entry is “Not Active”.
Consider `CN(C/C=C/C#CC(C)(C)C)Cc1cccc2ccccc12` [TERBINAFINE], for which the IC50 result is “Not Active”.
Same read-out and setting: for `CCCCNc1ccc(C(=O)OCCN(C)C)cc1` [TETRACAINE] the value was “Not Active”; for `Cn1c(=O)c2nc[nH]c2n(C)c1=O.O` [THEOPHYLLINE], “Not Active”.
Consider `CS(=O)(=O)c1ccc([C@@H](O)[C@@H](CO)NC(=O)C(Cl)Cl)cc1` [THIAMPHENICOL], for which the IC50 entry is “Not Active”.
